Results from patent publication US5834032A, “Compositions and methods for treating diabetes” (priority 1997, dated 1998).

Tests used:
Assay type in all cases: in vivo, rat
diabetic rats [1] = experiment: Blood glucose concentration changes (regression slope) during dietary feeding of defined chemical species (Example 2); details: Table 6
Description: (§1) Rats were first made diabetic by injection with streptozotocin, and then allowed to stabilize for a period of two weeks. […] After the two week period, the surviving diabetic rats were divided into seven groups and provided either with plain drinking water as a control, or drinking water containing one of six compositions to be tested for their effects on various parameters associated with the diabetic condition. Constituents included in these compositions, in varying combinations, were: zinc (20 mg/L); L-histidine (20 mg/L); arachidonic acid (100 mg/L); testosterone (100 mg/L); and C-Hispro (10 mg/L).
(§2) Diabetic rats receiving one of the six test compositions or control drinking water were monitored for blood glucose concentration, body weight and water consumption over a period of about one month. Values for these parameters were plotted on a graph, and a regression line drawn. […] Thus, if the blood glucose concentration increased substantially steadily over the course of the experiment, the slope of the regression line was reported along with the number of days duration during which the change was monitored.

diabetic rats [2] = experiment: Blood glucose in diabetic rats administered arachidonic acid and 0.5 mg/kg/day L-histidine (dose optimisation)
Experimental: In the experiment used to produce the results presented in Table 11, the concentration of AA was varied and the L-histidine concentration was held constant. Thus, a range of from 3-30 mg/kg/day of AA provided a therapeutic benefit, with a range of from 10-12 mg/kg/day of AA providing the greatest benefit.

diabetic rats [3] = experiment: Water consumption by diabetic rats during administration of chemicals in drinking water (Example 2); details: Table 8
Description: as §1, §2

diabetic rats [4] = experiment: Optimizing the level of C-Hispro intake for improving diabetes (blood glucose); details: for Mean mg glucose/dL after Tmt / Mean mg glucose/dL before Tmt: 10 mg Zn/L in drinking water; for Changes of mg glucose/dL: 10 mg Zn/L, decrease
Experimental: The results presented in Table 9 were used to determine the optimal concentration of C-Hispro useful for improving the symptoms associated with diabetes. Since rats consuming water containing C-Hispro ad libitum also consumed the lowest water volume as evidenced by the results in Table 8, the optimal concentration of C-Hispro for improving the symptoms of diabetes was determined by providing animals with water containing different concentrations of c-Hispro. The amounts of consumed were determined by measuring the amount of water consumed, dividing this value by the weight of the rat and multiplying the result by the c-Hispro concentration. The amount of C-Hispro intake for the most dramatic improvement of symptoms of diabetes was about 300 μg/kg/day, based on the results presented in Tables 9 and 10. […] Similar ranges of dosages also are expected to be useful for treating diabetic mammals, including humans.

[5] = arachidonic acid 0 mg/kg/day, 0.5 mg/kg/day L-histidine
[6] = C-Hispro intake 217 to 231 μg/kg, restricted water intake
[7] = C-Hispro intake 281 to 290 μg/kg, unrestricted water intake
[8] = C-Hispro intake 303 to 337 μg/kg, restricted water intake
[9] = C-Hispro intake 386 to 466 μg/kg, unrestricted water intake
[10] = C-Hispro intake 448 to 463 μg/kg, restricted water intake
[11] = C-Hispro intake 452 to 554 μg/kg, unrestricted water intake
[12] = C-Hispro intake 554 to 597 μg/kg, restricted water intake
[13] = C-Hispro intake 569 to 680 μg/kg, unrestricted water intake
[14] = arachidonic acid 2.02 to 2.39 mg/kg/day, plus 0.5 mg/kg/day L-histidine
[15] = arachidonic acid 3.04 to 3.58 mg/kg/day, plus 0.5 mg/kg/day L-histidine
[16] = arachidonic acid 4.05 to 4.78 mg/kg/day, plus 0.5 mg/kg/day L-histidine
[17] = arachidonic acid 5.06 to 5.97 mg/kg/day, plus 0.5 mg/kg/day L-histidine
[18] = arachidonic acid 10.12 to 11.95 mg/kg/day, plus 0.5 mg/kg/day L-histidine
[19] = arachidonic acid 15.18 to 17.91 mg/kg/day, plus 0.5 mg/kg/day L-histidine
[20] = arachidonic acid 20.24 to 23.88 mg/kg/day, plus 0.5 mg/kg/day L-histidine
[21] = arachidonic acid 25.30 to 29.85 mg/kg/day, plus 0.5 mg/kg/day L-histidine

**Q.** With `C[C@]12CC[C@H]3[C@@H](CCC4=CC(=O)CC[C@@]43C)[C@@H]1CC[C@@H]2O` [testosterone] as the compound, how does the “benefit of including testosterone in the composition” value (diabetic rats [1]) read?
**A.** no apparent benefit

**Q.** How did the “effect of L-histidine in the drinking water on diabetes” value (diabetic rats [2]; 0.5 mg/kg L-histidine) turn out when `N[C@@H](Cc1c[nH]cn1)C(=O)O` [L-Histidine, L-histidine] was run?
**A.** improved diabetes

**Q.** What about the “mg glu/dL Post-Treatment” value (diabetic rats [2]; [5]) of the same compound?
**A.** 304 ± 50 mg glu/dL

**Q.** What about the “mg glu/dL Pre-Treatment” value (diabetic rats [2]; [5]) of the same compound?
**A.** 204 ± 22 mg glu/dL

**Q.** And the “mg glu/dL improvement” value (diabetic rats [2]; arachidonic acid 0 mg/kg/day, 0.5 mg/kg/day L-histidine, negative = increase)?
**A.** -100 ± 62 mg glu/dL

**Q.** `O=C1N[C@@H](Cc2cnc[nH]2)C(=O)N2CCC[C@@H]12` [C-Hispro, cyclo-Hispro] was tested. Which “water consumption compared to the other groups” value (diabetic rats [3]) did it give?
**A.** lower than in the other groups tested

**Q.** And the “Mean mg glucose/dL after Tmt” value (diabetic rats [4]; [6])?
**A.** 213 ± 43 mg glucose/dL

**Q.** What about the “Mean mg glucose/dL before Tmt” value (diabetic rats [4]; [6]) of the same compound?
**A.** 372 ± 33 mg glucose/dL

**Q.** And the “Changes of mg glucose/dL” value (diabetic rats [4]; [6])?
**A.** 159 ± 45 mg glucose/dL

**Q.** What about the “Mean mg glucose/dL after Tmt” value (diabetic rats [4]; [7]) of the same compound?
**A.** 258 ± 27 mg glucose/dL

**Q.** What about the “Mean mg glucose/dL before Tmt” value (diabetic rats [4]; [7]) of the same compound?
**A.** 373 ± 30 mg glucose/dL

**Q.** And the “Changes of mg glucose/dL” value (diabetic rats [4]; [7])?
**A.** 115 ± 33 mg glucose/dL

**Q.** What about the “Mean mg glucose/dL after Tmt” value (diabetic rats [4]; [8]) of the same compound?
**A.** 192 ± 28 mg glucose/dL

**Q.** And the “Mean mg glucose/dL before Tmt” value (diabetic rats [4]; [8])?
**A.** 422 ± 27 mg glucose/dL

**Q.** What about the “Changes of mg glucose/dL” value (diabetic rats [4]; [8]) of the same compound?
**A.** 230 ± 14 mg glucose/dL

**Q.** What about the “Mean mg glucose/dL after Tmt” value (diabetic rats [4]; [9]) of the same compound?
**A.** 353 ± 37 mg glucose/dL

**Q.** And the “Mean mg glucose/dL before Tmt” value (diabetic rats [4]; [9])?
**A.** 411 ± 22 mg glucose/dL

**Q.** And the “Changes of mg glucose/dL” value (diabetic rats [4]; [9])?
**A.** 58 ± 47 mg glucose/dL

**Q.** And the “Mean mg glucose/dL after Tmt” value (diabetic rats [4]; [10])?
**A.** 216 ± 23 mg glucose/dL

**Q.** What about the “Mean mg glucose/dL before Tmt” value (diabetic rats [4]; [10]) of the same compound?
**A.** 342 ± 20 mg glucose/dL

**Q.** And the “Changes of mg glucose/dL” value (diabetic rats [4]; [10])?
**A.** 126 ± 34 mg glucose/dL

**Q.** And the “Mean mg glucose/dL after Tmt” value (diabetic rats [4]; [11])?
**A.** 367 ± 47 mg glucose/dL

**Q.** And the “Mean mg glucose/dL before Tmt” value (diabetic rats [4]; [11])?
**A.** 417 ± 8 mg glucose/dL

**Q.** What about the “Changes of mg glucose/dL” value (diabetic rats [4]; [11]) of the same compound?
**A.** 50 ± 41 mg glucose/dL

**Q.** And the “Mean mg glucose/dL after Tmt” value (diabetic rats [4]; [12])?
**A.** 221 ± 12 mg glucose/dL

**Q.** What about the “Mean mg glucose/dL before Tmt” value (diabetic rats [4]; [12]) of the same compound?
**A.** 314 ± 24 mg glucose/dL

**Q.** What about the “Changes of mg glucose/dL” value (diabetic rats [4]; [12]) of the same compound?
**A.** 93 ± 32 mg glucose/dL

**Q.** And the “Mean mg glucose/dL after Tmt” value (diabetic rats [4]; [13])?
**A.** 314 ± 20 mg glucose/dL

**Q.** And the “Mean mg glucose/dL before Tmt” value (diabetic rats [4]; [13])?
**A.** 359 ± 46 mg glucose/dL

**Q.** And the “Changes of mg glucose/dL” value (diabetic rats [4]; [13])?
**A.** 45 ± 16 mg glucose/dL

**Q.** And the “amount of C-Hispro intake for the most dramatic improvement of symptoms of diabetes” value (diabetic rats [4]; based on Tables 9 and 10)?
**A.** about 300 μg/kg/day

**Q.** What does the source list for `CCCCC/C=C\C/C=C\C/C=C\C/C=C\CCCC(=O)O` [arachidonic acid]?
**A.** range of AA providing the greatest benefit (diabetic rats [2]; L-histidine held constant): 10 to 12 mg/kg/day; range of AA that provided a therapeutic benefit (diabetic rats [2]; L-histidine held constant): 3 to 30 mg/kg/day; optimal amount of AA for improving the symptoms of diabetes in rats (diabetic rats [2]; L-histidine held constant (0.5 mg/kg/day)): about 10 mg/kg/day; mg glu/dL Post-Treatment (diabetic rats [2]; [14]): 321 ± 34 mg glu/dL; mg glu/dL Pre-Treatment (diabetic rats [2]; [14]): 263 ± 48 mg glu/dL; mg glu/dL improvement (diabetic rats [2]; [14]): -58 ± 16 mg glu/dL; mg glu/dL Post-Treatment (diabetic rats [2]; [15]): 256 ± 25 mg glu/dL; mg glu/dL Pre-Treatment (diabetic rats [2]; [15]): 303 ± 23 mg glu/dL; mg glu/dL improvement (diabetic rats [2]; [15]): 47 ± 26 mg glu/dL; mg glu/dL Post-Treatment (diabetic rats [2]; [16]): 247 ± 32 mg glu/dL; mg glu/dL Pre-Treatment (diabetic rats [2]; [16]): 308 ± 17 mg glu/dL; mg glu/dL improvement (diabetic rats [2]; [16]): 61 ± 43 mg glu/dL; mg glu/dL Post-Treatment (diabetic rats [2]; [17]): 252 ± 29 mg glu/dL; mg glu/dL Pre-Treatment (diabetic rats [2]; [17]): 426 ± 56 mg glu/dL; mg glu/dL improvement (diabetic rats [2]; [17]): 174 ± 53 mg glu/dL; mg glu/dL Post-Treatment (diabetic rats [2]; [18]): 187 ± 15 mg glu/dL; mg glu/dL Pre-Treatment (diabetic rats [2]; [18]): 393 ± 23 mg glu/dL; mg glu/dL improvement (diabetic rats [2]; [18]): 206 ± 25 mg glu/dL; mg glu/dL Post-Treatment (diabetic rats [2]; [19]): 184 ± 16 mg glu/dL; mg glu/dL Pre-Treatment (diabetic rats [2]; [19]): 368 ± 25 mg glu/dL; mg glu/dL improvement (diabetic rats [2]; [19]): 184 ± 30 mg glu/dL; mg glu/dL Post-Treatment (diabetic rats [2]; [20]): 241 ± 18 mg glu/dL; mg glu/dL Pre-Treatment (diabetic rats [2]; [20]): 379 ± 25 mg glu/dL; mg glu/dL improvement (diabetic rats [2]; [20]): 138 ± 33 mg glu/dL; mg glu/dL Post-Treatment (diabetic rats [2]; [21]): 301 ± 27 mg glu/dL; mg glu/dL Pre-Treatment (diabetic rats [2]; [21]): 443 ± 52 mg glu/dL; mg glu/dL improvement (diabetic rats [2]; [21]): 142 ± 66 mg glu/dL
